# Entries after “also recorded” stand apart in the source; their conditions may differ.
# How the values were obtained:
# cortical neurons = assay: Oligonucleosome formation in cortical neurons exposed to β-amyloid peptide (1-40); assay type: cell-based, rat; settings: for apoptosis (oligonucleosome formation) induced by β-amyloid peptide (1-40): 20 μM β-amyloid peptide (1-40), parallel treatment
# Procedure: (§1) Primary cultures of cortical neurons and cerebellar granule cells were prepared. In brief, cortical neurons were prepared from fetal brain from 17-day pregnant rat and cerebellar granule cells from 8-day old rats. Brain tissues were dissociated through trypsinization in 0.025% trypsin solution and trituration. Dissociated cells were collected through centrifugation and resuspended in standard medium containing: basal Eagle's medium containing 10% fetal bovine serum (FCS), 2 mM glutamine, genatmycin 0.05 mg/ml, and 25 mM KCI. Cells were plated at a density of 1.8×10^6 onto 35-mm dishes coated with 10 micrograms/ml ply-L-lysine.
# An inhibitor of HO-1 activity may be used to determine whether or not the effects of the polyphenolic compounds or analogs thereof are induced through the heme oxygenase signaling pathway. To understand the relevance of the induction of the stress protein HO-1 on the neuroprotective effects afforded by curcumin we treated cortical neuron exposed to β-amyloid with curcumin ([…]) alone or in the presence of tinprotoporphirine IX (SnPP) 40 μM, a specific inhibitor of HO-1 activity. The same treatment was performed in cortical neurons exposed to GOX-induced cellular damage.
# heme oxygenase [1] = assay: Heme oxygenase activity assay in astrocytes; assay type: cell-based
# Procedure: Type 1 astrocytes (DI TNC1) were purchased from the American Type Culture Collection (Manassas, VA) and cultured in Dulbecco's modified Eagle's medium containing 4.5 g/l glucose, 2 mM glutamine, 100 units/ ml penicillin, and 0.1 mg/ml streptomycin and supplemented with 10% fetal bovine serum. Cells were grown in 75-cm^2 flasks and maintained at 37° C. in a humidified atmosphere of air and 5% CO2. Confluent cells were exposed to various concentrations of curcumin, CAPE, or Curcumin-95. After each treatment (6 or 24 h), cells were harvested for the determination of heme oxygenase activity, HO-1 protein expression, and intracellular glutathione. Astrocytes growing in 24 wells were exposed to polyphenolic compounds, and cell viability was determined at 24 h. Heme oxygenase activity was determined at the end of each treatment as described previously by Foresti, et al.^18 and Motterlini, et al.^19 Briefly, microsomes from harvested cells were added to a reaction mixture containing NADPH, glucose-6-phosphate dehydrogenase, rat liver cytosol as a source of biliverdin reductase, and the substrate hemin. The reaction mixture was incubated in the dark at 37° C. for 1 h and was terminated by the addition of 1 ml of chloroform. After vigorous vortex and centrifugation, the extracted bilirubin in the chloroform layer was measured by the difference in absorbance between 464 and 530 nm (ε=40 mM^−1cm^−1).
# cerebellar granule cells = assay: Oligonucleosome formation (cell death detection ELISA), serum deprivation; assay type: cell-based, rat; settings: for apoptosis (oligonucleosome formation) induced by the absence of FCS: curcumin 1, 5, 10, 25 and 50 μM
# Procedure: as §1
# To induce programmed cell death in […] granule cells, two different experimental well-established paradigms: serum deprivation and low K^+, were performed. In particular, neurons were cultured after their plating in serum free medium containing 25 mM KCI or in standard medium for 6 days and then agitating them in a medium containing 10% FCS and 5 mM KCI. In both of these paradigms, control cells were grown in medium containing 10% FCS and 25 mM KCI.
# To induce apoptosis in cortical neurons, β-amyloid peptide (1-40), a molecule related to the pathogenesis of Alzheimer disease and a well known inducer of apoptosis was added.
# [2] = test system: Type 1 astrocytes (DI TNC1); assay: Cell viability of astrocytes, Alamar Blue; assay type: cell-based; settings: 24 h; for cytotoxic action in the presence of NAC: 1 mM NAC, curcumin 100 μM, CAPE 50 μM and 100 μM; for cell viability and cell morphology: concentration not exceeding 30 μM
# Procedure: Type 1 astrocytes (DI TNC1) were purchased from the American Type Culture Collection (Manassas, VA) and cultured in Dulbecco's modified Eagle's medium containing 4.5 g/l glucose, 2 mM glutamine, 100 units/ ml penicillin, and 0.1 mg/ml streptomycin and supplemented with 10% fetal bovine serum. Cells were grown in 75-cm^2 flasks and maintained at 37° C. in a humidified atmosphere of air and 5% CO2. Confluent cells were exposed to various concentrations of curcumin, CAPE, or Curcumin-95. After each treatment (6 or 24 h), cells were harvested for the determination of heme oxygenase activity, HO-1 protein expression, and intracellular glutathione. Astrocytes growing in 24 wells were exposed to polyphenolic compounds, and cell viability was determined at 24 h. Astrocytes were exposed to curcumin or CAPE for the indicated times, and cell viability was assessed with the use of an Alamar Blue assay according to manufacturer's instructions (Serotec; Oxford, UK) as reported previously^11. At the end of each treatment, cells were washed twice and incubated for an additional 5 h in complete medium containing 1% Alamar Blue solution. Optical density in each sample was measured using a plate reader (Molecular Devices; Crawley, UK). The intensity of the color developed in the medium is proportional to the viability of cells, which is calculated as the difference in absorbance between 570 and 600 nm and expressed as percentage of control.
# heme oxygenase [3] = assay: Heme oxygenase activity assay in cortical neurons; assay type: cell-based, rat
# Procedure: The ability of curcumin to interact with the heme oxygenase (HO) pathway in primary cortical neurons was tested. Cells were exposed to various concentrations of curcumin (1-100 μM) and heme oxygenase activity. HO-1 mRNA and protein expression were determined at different times after treatment. N-acetyl cysteine (NAC; 1 mM), a precursor of glutathione and a sulphydril donor with potent anti-oxidant properties, was also used to examine whether changes in heme oxygenase activity by curcumin are mediated by pro-oxidant mechanisms. Heme oxygenase activity assays were performed using a modified methodology previously described by […], et al.^15 Cells were washed with PBS, scraped off their plates, separated by centrifugation, and resuspended in a solution containing 100 mM PBS and 2mM MgCl2, freeze/thawed three times, and finally sonicated. The supernatant was added to a reaction mixture containing nicotinamide adenine dinucleotide phosphate (NADPH) (0.8 mM), glucose 6-phosphate (2 mM), glucose-6-phosphate dehydrogenase (0.2 units), 3 mg of rat liver cytosol prepared from a 105,000×g supernatant fraction as a source of biliverdin reductase, potassium phosphate buffer (PBS, 100 mM, pH 7.4), MgCl2 (0.2 mM), and hemin (20 μM). The reaction was conducted at 37° C. in the dark for 1 h and terminated by the addition of 1 ml of chloroform. The amount of extracted bilirubin was calculated by the difference in absorbance between 464 nm and 530 nm (ε=40 mM^-1 cm^-1). Heme oxygenase activity was expressed as picomoles of bilirubin/mg of cell protein/h. The total protein content of confluent cells was determined using a Bio-Rad DC protein assay (Bio-Rad; Herts, UK) by comparison with a standard curve obtained with bovine serum albumin.
# [4] = high concentrations (50 and 100 μM)
smiles,measurement,setting,value
"O=C(/C=C/c1ccc(O)c(O)c1)OCCc1ccccc1 [CAPE, Caffeic acid phenethyl ester]",apoptosis (oligonucleosome formation) induced by β-amyloid peptide (1-40),cortical neurons,strong dose-dependent anti-apoptotic effect
same,concentration most effective in protecting from apoptosis,cortical neurons; β-amyloid,25 µM
same,concentration of maximal enzyme activation,heme oxygenase [1],30 µM
same,enzyme activation and protein expression at 100 μM compared with 30 μM,heme oxygenase [1]; 100 μM,significantly less effective
same,heme oxygenase activity,heme oxygenase [1]; [4],unable to stimulate an increase in heme oxygenase activity
same,heme oxygenase activity,heme oxygenase [1]; low concentrations 15-50 μM,substantial increase
same,concentration with strongest / most effective anti-apoptotic effect,cerebellar granule cells,25 µM
same,apoptosis (oligonucleosome formation) induced by the absence of FCS,cerebellar granule cells,strong dose-dependent anti-apoptotic effect
same,reduction in cell viability,[2]; 50 μM,61%
same,reduction in cell viability,[2]; 100 μM,78%
same,cytotoxic action in the presence of NAC,[2],significantly attenuated the cytotoxic action
same,cell viability and cell morphology,[2],fully preserved
"COc1cc(C=CC(=O)CC(=O)C=Cc2ccc(O)c(OC)c2)ccc1O [curcumin, 1,7-bis[4-Hydroxy-3-methoxyphenyl]-1,6-heptadiene-3,5-dione]","maximal heme oxygenase activity, increase over control","heme oxygenase [3]; 25 μM, 6h",10 fold
same,heme oxygenase activity,heme oxygenase [3]; 50 μM,gradually decreased to those of control values
same,heme oxygenase activity,"heme oxygenase [3]; 1-50 μM, 6h",concentration-dependent increase in heme oxygenase activity
same,dose-dependent induction of heme oxygenase activity,heme oxygenase [3]; 24h exposure,maintained after 24h exposure
same,apoptosis (oligonucleosome formation) induced by β-amyloid peptide (1-40),cortical neurons,able to overcome much of the cellular damage caused by β-amyloid; also recorded: dramatically protect the cells against apoptosis
same,apoptosis induced by β-amyloid in the presence of HO-1 inhibitor SnPP,cortical neurons; curcumin plus SnPP 40 μM,only able to partially reduce the apoptotic effects
same,increase in heme oxygenase activity,"heme oxygenase [1]; 6 h, 15 μM",7.4 fold
same,increase in heme oxygenase activity,"heme oxygenase [1]; 6 h, 30 μM",9.1 fold
same,heme oxygenase activity,"heme oxygenase [1]; 6 h, 30 μM (control 247±5)",2461±194 pmol of bilirubin/mg of protein/h
same,heme oxygenase activity,"heme oxygenase [1]; 6 h, 30 μM plus 1 mM NAC",2392±22 pmol of bilirubin/mg of protein/h
same,heme oxygenase activity,"heme oxygenase [1]; 6 h, 50 μM, absence of NAC",492±30 pmol of bilirubin/mg of protein/h
same,heme oxygenase activity,"heme oxygenase [1]; 6 h, 50 μM, presence of 1 mM NAC",752±78 pmol of bilirubin/mg of protein/h
same,effect of NAC on the increase in heme oxygenase activity,"heme oxygenase [1]; 6 h, 15 and 30 μM, 1 mM NAC",not significantly affected by the presence of NAC
same,heme oxygenase activity,heme oxygenase [1]; [4],unable to stimulate an increase in heme oxygenase activity
same,elevation in heme oxygenase activity,heme oxygenase [1]; higher concentrations (50-100 μM),1.9 fold
same,concentration with strongest / most effective anti-apoptotic effect,cerebellar granule cells,25 µM
same,apoptosis (oligonucleosome formation) induced by the absence of FCS,cerebellar granule cells,significantly reduced apoptosis
same,reduction in cell viability,[2]; 50 μM,20%
same,reduction in cell viability,[2]; 100 μM,63%
same,cytotoxic action in the presence of NAC,[2],significantly attenuated the cytotoxic action
same,cell viability and cell morphology,[2],fully preserved

# — patent publication US20040167217A1, “Neuroprotective effects of polyphenolic compounds” (priority 2003, published 2004)
